This note sets out measurements from ChEMBL document CHEMBL5223122, “Discovery and preclinical evaluations of GST-HG131, a novel HBV antigen inhibitor for the treatment of chronic hepatitis B infection” (Bioorg Med Chem Lett, 2022).

One may read the EC50 as the concentration at which the effect is half-maximal. For orientation: clearance means the rate of elimination divided by the concentration. A low value points to a low capacity for elimination. As a reminder, the half-life is the time in which the quantity being followed falls by half. The low end stands for rapid decline, the high end for slow decline. A word on the Cmax: it is the maximum level reached in the sampled fluid or tissue. As a reminder, the AUC(0-t) is exposure summed from dosing to a finite time, without extrapolation to infinity. Higher therefore signals more exposure. By bioavailability is commonly meant the share of a dose that reaches the circulation, judged against a reference dose that is usually intravenous. A low value points to little systemic uptake.

In series [1] the test system is Hepatitis B virus. Description: Antiviral activity against HBV infected in human HepG2.2.15 assessed as HBV DNA reduction by qPCR method. In kind it is functional, organism-based. (Quantitative PCR measures a nucleic acid by following its amplification.)
Series [2] has as its system Hepatitis B virus. Put plainly: Antiviral activity against HBV infected in human HepG2.2.15 assessed as reduction on HBsAg level by ELISA. The class given is functional, organism-based.
A short description of series [3]: Clearance in C57BL/6 mouse at 1 mg/kg, iv. In kind it is ADME, organism-based. The settings on record: in vivo.
Series [4] in a line: Volume of distribution in steady state in C57BL/6 mouse at 1 mg/kg, iv. To be noted: in vivo, read-out: Vdss. The class given is ADME, organism-based.
Series [5] in a line: Half life in C57BL/6 mouse at 1 mg/kg, iv. To be noted: in vivo. The class given is ADME, organism-based.
The nature of series [6]: Cmax in C57BL/6 mouse at 2 mg/kg, po. The class given is ADME, organism-based. More on the design: dose 2 mg/kg, route po. The settings on record: in vivo.
A short description of series [7]: AUC (0-last) in C57BL/6 mouse at 2 mg/kg, po. The class given is ADME, organism-based. More on the design: dose 2 mg/kg, route po. The settings on record: in vivo.
Series [8] in a line: Oral bioavailability in C57BL/6 mouse at 2 mg/kg. The class given is ADME, organism-based. The settings on record: in vivo.
Series [9] can be described thus: Clearance in Sprague-Dawley rat at 1 mg/kg, iv. In kind it is ADME, organism-based. The settings on record: in vivo.
Series [10] is described as follows: Volume of distribution in steady state in Sprague-Dawley rat at 1 mg/kg, iv. In kind it is ADME, organism-based. The settings on record: in vivo, read-out: Vdss.
The nature of series [11]: Half life in Sprague-Dawley rat at 1 mg/kg, iv. In kind it is ADME, organism-based. To be noted: in vivo.
The nature of series [12]: Cmax in Sprague-Dawley rat at 2 mg/kg, po. The class given is ADME, organism-based. More on the design: dose 2 mg/kg, route po. The settings on record: in vivo.
Series [13] can be described thus: AUC (0-last) in Sprague-Dawley rat at 2 mg/kg, po. The class given is ADME, organism-based. More on the design: dose 2 mg/kg, route po. The settings on record: in vivo.
Series [14] is described as follows: Oral bioavailability in Sprague-Dawley rat at 2 mg/kg. The settings on record: in vivo. In kind it is ADME, organism-based.
The test system of series [15] is Hepatitis B virus. Description: Antiviral activity against HBV infected in human primary hepatocytes assessed as HBV DNA reduction by qPCR method. The class given is functional, organism-based. The settings on record: Hepatocyte.
Series [16] relates to Hepatitis B virus. Description: Antiviral activity against HBV infected in human primary hepatocytes assessed as reduction on HBsAg level by ELISA. In kind it is functional, organism-based. To be noted: Hepatocyte. (ELISA stands for enzyme-linked immunosorbent assay.)
Series [17] deals with Hepatitis B virus. Put plainly: Antiviral activity against HBV infected in human primary hepatocytes assessed as reduction on HBeAg level by ELISA. The class given is functional, organism-based. To be noted: Hepatocyte.
For series [18], the system named is Hepatitis B virus. Description: Antiviral activity against HBV infected in human HepG2.2.15 cells assessed as reduction of 3.5 Kb HBV RNA level at 50 nM and incubated for 4 to 48 hrs by Northern blot anlaysis. The class given is functional, organism-based. The settings on record: time 4-48 hrs.
Series [19] in a line: Toxicity in mouse infected with AAV encapsidated HBV assessed as change in body weight at 1 mg/kg, po QD for 4 weeks. In kind it is organism-based. The settings on record: in vivo, 672 h.
The nature of series [20]: Toxicity in mouse infected with AAV encapsidated HBV assessed as change in body weight at 10 mg/kg, po QD for 4 weeks. In kind it is organism-based. To be noted: in vivo, 672 h.
Series [21] has as its system Hepatitis B virus. Put plainly: In vivo antiviral activity against AAV encapsidated HBV infected in mouse assessed as reduction in HBsAg level at 10 mg/kg, po QD for 4 weeks by ELISA. The class given is functional, organism-based.
For series [22], the system named is Hepatitis B virus. Put plainly: In vivo antiviral activity against AAV encapsidated HBV infected in mouse assessed as reduction in HBeAg level at 10 mg/kg, po QD for 4 weeks by ELISA. In kind it is functional, organism-based.
The nature of series [23]: Toxicity in rat assessed as organ abnormality at 100 to 300 mg/kg, po QD for 14 days. The settings on record: in vivo, 336 h, dose 100-300 mg/kg, time 14 day. The class given is organism-based.
Series [24] can be described thus: Toxicity in rat assessed as mild myocardial degeneration of heart at 1000 mg/kg, po QD for 14 days. The class given is organism-based. To be noted: in vivo, 336 h, time 14 day.
A short description of series [25]: Toxicity in rat assessed as mild central lobular hepatocyte degeneration of liver at 1000 mg/kg, po QD for 14 days. The settings on record: hepatocytes, 336 h, time 14 day. In kind it is organism-based.
The nature of series [26]: Toxicity in rat assessed as mild white myeloid lymphocytopenia of spleen at 1000 mg/kg, po QD for 14 days. To be noted: in vivo, 336 h, time 14 day. In kind it is organism-based.
Series [27] can be described thus: Toxicity in rat assessed as moderate acute mucosal inflammation of duodenum at 1000 mg/kg, po QD for 14 days. The class given is organism-based. To be noted: in vivo, 336 h, time 14 day.
Series [28] is described as follows: Toxicity in rat assessed as mydriasis at 300 to 1000 mg/kg, po. The class given is organism-based. To be noted: in vivo, dose 300-1000 mg/kg.
Series [29] is described as follows: Toxicity in rat assessed as decrease in normal rectal temperature at 300 mg/kg, po. In kind it is organism-based. The settings on record: in vivo.
Series [30] is described as follows: Toxicity in rat assessed as decrease in normal rectal temperature at 1000 mg/kg, po. The class given is organism-based. To be noted: in vivo.
Series [31] deals with Hepatitis B virus. Description: In vivo antiviral activity against AAV encapsidated HBV infected in mouse assessed as reduction in HBsAg level at 1 mg/kg, po QD for 4 weeks in presence of (R)-7-(tert-butyl)-2-methoxy-3-(3-methoxypropoxy)-11-oxo-6,7-dihydro-11H-benzo[f]pyrido[1,2-d][1,4]oxazepine-10-carboxylic acid by ELISA. In kind it is functional, organism-based.
Series [32] relates to Hepatitis B virus. Put plainly: In vivo antiviral activity against AAV encapsidated HBV infected in mouse assessed as reduction in HBeAg level at 1 mg/kg, po QD for 4 weeks in presence of (R)-7-(tert-butyl)-2-methoxy-3-(3-methoxypropoxy)-11-oxo-6,7-dihydro-11H-benzo[f]pyrido[1,2-d][1,4]oxazepine-10-carboxylic acid by ELISA. In kind it is functional, organism-based.
The subject of series [33] is Hepatitis B virus. Put plainly: In vivo antiviral activity against AAV encapsidated HBV infected in mouse assessed as reduction in HBV DNA at 1 mg/kg, po QD for 4 weeks in presence of (R)-7-(tert-butyl)-2-methoxy-3-(3-methoxypropoxy)-11-oxo-6,7-dihydro-11H-benzo[f]pyrido[1,2-d][1,4]oxazepine-10-carboxylic acid by qPCR method. The class given is functional, organism-based.

The source made the active and inactive calls. The calls are words filed in the database; no cut-off is given here. Some results are limits rather than exact numbers.

Regarding `COCCCOc1cc2c(cc1Cl)-c1cc(=O)c(C(=O)O)cn1[C@H](CC(C)C)CO2`, the EC50 stood at 102 nM in the series with Hepatitis B virus [1] and 128 nM in the series with Hepatitis B virus [2].
On to `COCCCOc1cc2c(cc1Cl)-c1cc(=O)c(C(=O)O)cn1[C@H](C1CCC1)CO2`, for which the figures for the EC50 in the series with Hepatitis B virus [1] and in the series with Hepatitis B virus [2] were 531 nM and 125 nM, respectively.
In the case of `COCCCOc1cc2c(cc1C(C)=O)-c1cc(=O)c(C(=O)O)cn1[C@H](C(C)(C)C)CO2`, the results for the EC50 with Hepatitis B virus [1] and in the series with Hepatitis B virus [2] were 0.5 nM and 1.3 nM, respectively. Besides, the clearance in series [3] worked out at 81 mL/min/kg; in series [9], 33 mL/min/kg. Also, the Vd in series [4] came to 2.5 L/kg; in series [10] it was 1 L/kg. Besides, the half-life in [5] is 0.6 h; in [11], 0.8 h. Also, the figures for the Cmax in [6] and in series [12] were 604 nM and 104 nM, respectively. The results for the AUC(0-t) in series [7] and in series [13] were 0.478 µM·h and 0.228 µM·h, respectively. For the same compound, the bioavailability in series [8] is 55.3%; in series [14], 10.4%.
Turning to `C=C1[C@H](CO)[C@@H](O)C[C@@H]1n1cnc2c(=O)[nH]c(N)nc21.O` [ENTECAVIR], the EC50 was 0.0078 nM with Hepatitis B virus [15], above 0.05 nM in the series with Hepatitis B virus [16] and above 0.05 nM with Hepatitis B virus [17]. For the same compound, in the series with Hepatitis B virus [18], the outcome was inactive. For the same compound, the Activity result in [19] was “Non-Toxic”.
For the compound `COCCCOc1cc2c(cc1Cl)-c1cc(=O)c(C(=O)O)cn1[C@H](C1CC1)CO2`, the figures for the EC50 in the series with Hepatitis B virus [1] and with Hepatitis B virus [2] were 105 nM and 66.2 nM, respectively.
Turning to `CC[C@@H]1COc2cc(OCCCOC)c(Cl)cc2-c2cc(=O)c(C(=O)O)cn21`, the figures for the concentration for a half-maximal effect (EC50) with Hepatitis B virus [1] and in the series on Hepatitis B virus [2] were 44.7 nM and 47.2 nM, respectively.
Consider `COCCCOc1cc2c(cc1Cl)-c1cc(=O)c(C(=O)O)cn1[C@H](C(C)C)CO2`, for which the 50% effective concentration (EC50) with Hepatitis B virus [1] was 8.8 nM; in the series on Hepatitis B virus [2], 6.6 nM. For the same compound, the clearance in series [3] stood at 32 mL/min/kg. Further, in [4], the Vd is 1.7 L/kg. Further, the half-life in series [5] is 1.6 h. The highest level in series [6] (Cmax) was 1310 nM. The compound also returned an AUC(0-t) in series [7] of 1.34 µM·h. Moreover, in series [8], the bioavailability stood at 56.3%.
In the case of `COCCCOc1cc2c(cc1Cl)-c1cc(=O)c(C(=O)O)cn1[C@H](C(C)(C)C)CO2`, the results for the EC50 with Hepatitis B virus [1] and in the series on Hepatitis B virus [2] were 0.5 nM and 0.7 nM, respectively. Besides, the clearance in [3] turned out to be 58.5 mL/min/kg. The Vd in series [4] is 4.9 L/kg. In addition, in [5], the half-life was 6.3 h. In series [6], the Cmax turned out to be 203 nM. The compound further returned an AUC(0-t) in series [7] of 0.193 µM·h. The compound further returned a bioavailability in [8] of 18.3%.
As for `COCCCOc1cc2c(cc1Cl)-c1cc(=O)c(C(=O)O)cn1[C@H](c1ccccc1)CO2`, the EC50 in the series on Hepatitis B virus [1] and in the series with Hepatitis B virus [2] was above 1000 nM throughout.
For `COCCCOc1ccc(-c2cc(=O)c(C(=O)O)cn2-c2ccccc2C)cc1Cl`, the EC50 stood at 140 nM with Hepatitis B virus [1] and 230 nM with Hepatitis B virus [2].
For the compound `COCCCOc1cc2c(cc1OC)-c1cc(=O)c(C(=O)O)cn1[C@H](C(C)C)C2`, the EC50 with Hepatitis B virus [1] and with Hepatitis B virus [2] was 0.8 nM each time. For the same compound, the Activity result in [20] is “Non-Toxic”; in [23], “Non-Toxic”; in series [24], “Toxic”; in series [25] it was “Toxic”; in [26], “Toxic”; in series [27] it was “Toxic”. The Activity entry in series [28], in series [29] and in series [30] was “Toxic” each time. Besides, the result in the series on Hepatitis B virus [21] and with Hepatitis B virus [22] was Active.
Take `CC(C)OC(=O)OCOP(=O)(CO[C@H](C)Cn1cnc2c(N)ncnc21)OCOC(=O)OC(C)C`: the result in the series on Hepatitis B virus [31] and in the series with Hepatitis B virus [32] was inactive. Further, the result in the series on Hepatitis B virus [33] was Active.
For the compound `COCCCOc1cc2c(cc1Cl)-c1cc(=O)c(C(=O)O)cn1[C@H](C)CO2`, the values for the concentration for a half-maximal effect (EC50) in the series with Hepatitis B virus [1] and with Hepatitis B virus [2] were 193 nM and 226 nM, respectively.
In the case of `COCCCOc1cc2c(cc1Cl)-c1cc(=O)c(C(=O)O)cn1[C@H](C(C)C)C2`, the figures for the EC50 in the series on Hepatitis B virus [1] and in the series on Hepatitis B virus [2] were 0.8 nM and 0.9 nM, respectively.
